# According to US7507766B2, “Treatment of cancers” (Pharma Mar, S.A., priority 2000, dated 2009):
# “Also recorded” adds a separate entry of the source. Starred links: 1 amine or outer side, 2 acyl side, 3 side chain; linkers in the order of their positions; H or OH if unused. Positions of bridges follow the written chain, without caps; N, C: chain ends. Non-standard residues stand in square brackets, D forms with d. Residues, ends and D or L forms follow the SMILES beside them. *: point of attachment. X1 = CC[C@H](C)[C@@H](N[*:1])[C@@H](O)CC(=O)O[C@H](C(=O)[C@H](C)C(=O)[*:2])C(C)C; NMeY = CN[C@@H](Cc1ccc(O)cc1)C(=O)O; dNMeL = CN[C@H](CC(C)C)C(=O)O; Pyruvoyl = CC(=O)C(=O)*
# What was measured:
# cell cycle = settings: cited from earlier work
# [1] = system: gene (FLT1) encoding the receptor of the Vascular Endothelial Growth Factor (VEGF); assay: expression of the gene FLT1; format: cell-based
# [2] = Phase I clinical studies: MTD, DLT and RD per dosing regime; format: in vivo, human
# Excerpt: The Recommended Dose (RD) is the highest dose which can be safely administered to a patient producing tolerable, manageable and reversibly toxicity according to the Common Toxicity Criteria established by the National Cancer Institute, (USA) with no more than […] patients presenting any dose limiting toxicities (DLT). Guidelines for cancer therapy frequently call for administration of chemotherapeutic agents at the highest safe dose at which toxicity is manageable in order to achieve maximum efficacy (DeVita, V. T. Jr., Hellman, S. and Rosenberg, S. A., Cancer: Principles and Practice of Oncology, 3rd ed., 1989, Lipincott, Philadelphia).
# DLTs for aplidine using this method of treatment were determined in clinical studies. These studies established a recommended dose level for differing kinds of dosing protocols.
# [3] = stability of aplidine solution and lyophilised dosage form; settings: heat and light stress testing
# Method: In a currently preferred embodiment freeze-drying was performed from a […] solution of aplidine in 40% (v/v) tert-butanol in Water for Injection (Wfl) containing 25 mg/mL D-mannitol as bulking agent.
# human bladder cancer = human bladder cancer animal models; format: in vivo; settings: complete remissions in some animal models
# VEGF protein = assay: production of VEGF protein by tumour cells; format: cell-based
# ornithine decarboxylase = molecular target: T1, ornithine decarboxylase (Homo sapiens, UniProt P11926); settings: all three cell lines; cited from earlier work
# T1 construct: endogenous in cells; host or cells: CT-1, CT-2 and HT-29 colon carcinoma cell lines
# T1 sequence (P11926 1-461): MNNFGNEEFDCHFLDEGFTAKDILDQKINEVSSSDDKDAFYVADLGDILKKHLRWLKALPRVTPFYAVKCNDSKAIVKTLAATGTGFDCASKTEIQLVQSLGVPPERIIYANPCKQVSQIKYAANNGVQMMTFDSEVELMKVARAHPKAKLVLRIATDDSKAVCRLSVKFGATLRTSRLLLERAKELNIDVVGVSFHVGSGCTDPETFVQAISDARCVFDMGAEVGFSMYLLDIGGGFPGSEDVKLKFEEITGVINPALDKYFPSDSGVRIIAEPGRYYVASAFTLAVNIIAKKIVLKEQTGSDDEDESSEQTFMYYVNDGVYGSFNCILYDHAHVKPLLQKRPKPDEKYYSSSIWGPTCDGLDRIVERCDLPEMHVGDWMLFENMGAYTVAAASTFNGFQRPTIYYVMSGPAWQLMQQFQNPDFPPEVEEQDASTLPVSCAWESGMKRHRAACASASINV
# [4] = Phase I studies: aplidine myotoxicity and L-carnitine as myoprotector; format: in vivo, human
# Method: More generally, the invention involves the use of a muscle protector in conjunction with aplidine therapy. We have found in particular that carnitine is beneficial in treating myotoxicity that is associated with chemotherapy with the experimental drug aplidine. […] When L-carnitine 4.5 g/day was added to the therapy (at doses of 1.5 g three times daily), or 0.1 mg/kg (at doses of 0.033 mg 3 times daily) patients were able to tolerate doses of aplidine up to 6000 mcg/m 2 every second week. […] Therefore, muscle protectors such as L-carnitine is a useful myoprotector for patients being treated with aplidine or an aplidine analogue.
# L-carnitine at a dose of 1.5 grams 3 times per day or 0.033 g/kg 3 times per day was started in all patients of study APL-A-003-98.
# B16 melanoma = settings: mice; cited from earlier work
# lewis lung carcinomas = settings: mouse, in vivo; cited from earlier work
# [5] = system: human colon cancer cell line, HT-29; settings: cited from earlier work
# [6] = Phase I study, 24 h continuous infusion every other week: pharmacokinetics; format: in vivo, human
# Method: A phase I and pharmacokinetic study of aplidine, given as a 24 h continuous infusion every other week in patients with solid tumours and non-Hodgkin lymphoma
# CT-2 = settings: cited from earlier work
# human cancer xenografts = settings: cited from earlier work
structure (smiles),measurement,setting,value
CC[C@H](C)[C@H]1NC(=O)[C@@H](NC(=O)[C@@H](CC(C)C)N(C)C(=O)[C@@H]2CCCN2C(=O)C(C)=O)[C@@H](C)OC(=O)[C@H](Cc2ccc(OC)cc2)N(C)C(=O)[C@@H]2CCCN2C(=O)[C@H](CC(C)C)NC(=O)[C@@H](C)C(=O)[C@H](C(C)C)OC(=O)C[C@@H]1O [aplidine] (Pyruvoyl-P[dNMeL]T[X1]LP[NMeY](Me); ester 3-C),cell cycle perturbations,cell cycle,did not induce any apparent cell cycle pertubations
same,expression of FLT1 gene,[1],inhibits expression
same,dose-limiting toxicity,[2]; 1-hour infusion for 5 consecutive days every 3 weeks,Muscular/long; also recorded: lasting emesis
same,dose-limiting factor,[2]; 4 Phase I trials,skeletal muscle toxicity
same,dose-limiting toxicity,"[2]; 24 hour infusion every 2 weeks, L-carnitine daily",Flu-like
same,dose-limiting toxicity,"[2]; weekly 24 hour infusion for 3 weeks, 1 week rest",Muscular/; also recorded: hepatic
same,RD of aplidine,"[2]; with L-carnitine 0.1 g/kg/day in 3 portions, for Phase II studies",7 mg/m^2
same,degradation in solution,[3],substantial degradation
same,activity on human bladder cancer,human bladder cancer,exceedingly high activity
same,production of VEGF protein by tumour cells,VEGF protein,severely inhibit production
same,ornithine decarboxylase activity,ornithine decarboxylase,decreased ornithine decarboxylase activity
same,toxicity in some subjects without L-carnitine,"[4]; 24-hour infusion, 4500 mcg/m^2 every week, then 6000 mcg/m^2 every second week",muscular and skeletal toxicity
same,new dose-limiting factor under L-carnitine prophylaxis,[4]; 24 h every other week infusion study,non-muscular
same,"electron microscopy of muscle, most important change",[4]; biopsied patients,disappearance of thick filaments
same,dose from which muscle cramps occur (mild cases),[4]; every 2 weeks,≥ 3200 mcg/m2
same,"onset of myotoxicity, number of infusions, median",[4]; in vivo,4 infusions
same,relationship of myotoxicity to exposure,[4]; in vivo,related to prolonged exposure rather than high exposure or concentrations
same,"reversible increases in creatin-kinase (CK), grade reached",[4]; more severe cases,≤ 3 grade
same,activity against implanted B16 melanoma,B16 melanoma,active
same,optimal dose,B16 melanoma,160 micro/kg
same,activity in SC implanted lewis lung carcinomas,lewis lung carcinomas,active
same,cytotoxic activity,[5],dose-dependent cytotoxic activity
same,t ½ in the 3 patients with clear muscular toxicity,[6]; 24 h infusion,> 44 h
same,coefficient of variation of CL (interpatient),"[6]; human, in vivo",62%
same,PK profile,[6]; low sample size,dose-linear
same,terminal phase median half-life,"[6]; preliminary compartmental analysis, 24 h infusion",25.8 h
same,initial phase median half-life,"[6]; preliminary compartmental analysis, first-order 2-compartment model",0.64 h
same,"t ½, median",[6]; quartiles 15.7-35.0,23.8 h
same,"plasma CL, median",[6]; quartiles 192-415,252 mL/min/m^2
same,"Vss, median",[6]; quartiles 274-638,413 L/m^2
same,cytotoxic activity,CT-2,dose-dependent cytotoxic activity
same,"relative sensitivity among CT-1, CT-2, HT-29",CT-2; most proliferative line,most sensitive
same,remissions,human cancer xenografts; 2.1 mg/kg,near complete remissions in some animals
same,treated/control (T/C) tumour ratio,human cancer xenografts; 2.1 mg/kg,9%
same,maximum tolerated dose,human cancer xenografts; mice,2.1 mg/kg
